Source: patent publication US5981551A, “2,5-diimino-3a,6a-diaryl-1,2,3,3a,4,5,6,6a-octahydroim idazo[4,5-d]imidazoles which are effective as G-CSF mimetics” (SmithKline Beecham Corporation, priority 1998, dated 1999)
Counter-ions that a name gives are not always drawn.

Target: T1, G-CSF receptor (Mus musculus, UniProt P40223)
T1 construct: NSF60 cells express endogenous G-CSF receptors; endogenous in cells; host or cells: NFS60 cells
T1 sequence (P40223 26-837): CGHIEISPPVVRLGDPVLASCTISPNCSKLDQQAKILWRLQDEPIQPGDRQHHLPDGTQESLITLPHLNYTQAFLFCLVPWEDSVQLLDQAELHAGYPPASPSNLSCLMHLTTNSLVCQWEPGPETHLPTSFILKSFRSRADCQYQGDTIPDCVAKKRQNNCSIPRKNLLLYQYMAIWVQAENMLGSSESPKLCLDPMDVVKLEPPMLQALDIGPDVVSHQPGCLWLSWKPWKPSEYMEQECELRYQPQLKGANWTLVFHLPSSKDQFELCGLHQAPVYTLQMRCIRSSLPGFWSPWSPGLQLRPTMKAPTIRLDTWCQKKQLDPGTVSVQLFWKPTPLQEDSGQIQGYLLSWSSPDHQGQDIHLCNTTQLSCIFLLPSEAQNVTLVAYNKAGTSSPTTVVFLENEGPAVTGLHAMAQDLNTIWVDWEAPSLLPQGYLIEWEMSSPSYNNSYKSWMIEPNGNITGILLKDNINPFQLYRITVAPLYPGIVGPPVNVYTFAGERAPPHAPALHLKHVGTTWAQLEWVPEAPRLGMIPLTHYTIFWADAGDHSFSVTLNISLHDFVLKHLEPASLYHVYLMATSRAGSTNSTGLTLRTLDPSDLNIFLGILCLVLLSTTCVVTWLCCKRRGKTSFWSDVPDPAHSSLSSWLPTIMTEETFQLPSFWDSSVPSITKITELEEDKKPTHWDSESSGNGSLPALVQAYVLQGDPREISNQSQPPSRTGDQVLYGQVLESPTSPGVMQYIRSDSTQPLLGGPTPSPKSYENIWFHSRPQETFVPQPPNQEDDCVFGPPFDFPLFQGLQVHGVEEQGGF
Experiment: Luciferase assay in NFS60 cells (G-CSF mimetic potency)
Assay type: cell-based
Settings: concentration range of 1 to 32 uM
Text: Luciferase Assay […] Natl. Acad. Sci., USA 92: 3041-3045 (1995) by substituting NFS60 cells for the HepG2 cells utilized therein. The NFS60 cells (Holmes, et al., Proc. Natl. Acad. Sci. USA 82: 6687-6691 (1985)) were substituted for the HepG2 cells in the Lamb assay because the NSF60 cells express endogenous G-CSF receptors closely matching the pattern of STAT (signal transducers and activators of transcription) activation observed in primary murine and human bone marrow cells.

| SMILES | activation, % of control, in the luciferase assay |
| --- | --- |
| c1ccc(C23NC(=Nc4nc5ccccc5[nH]4)NC2(c2ccccc2)NC(=Nc2nc4ccccc4[nH]2)N3)cc1 (stereo not drawn) [Example 2] | above 150 % of control |
| c1coc(C23NC(=Nc4nc5ccccc5[nH]4)NC2(c2ccco2)NC(=Nc2nc4ccccc4[nH]2)N3)c1 (stereo not drawn) [Example 3, 2,5-bis[2-benzimidazolylimino]-3a,6a-bis(2-furyl)-1,2,3,3a,4,5,6,6a-bis(2-pyridyl)octahydroimidazo[4.5-d]imidazole] | ≤ 150 % of control |
| c1ccc(C23NC(=Nc4nc5ccccc5o4)NC2(c2ccccn2)NC(=Nc2nc4ccccc4o2)N3)nc1 (stereo not drawn) [Example 14, 2,5-bis[2-benzoxazolylimino]-3a,6a-bis(2-pyridyl)-1,2,3a,4,5,6,6a-octahydroimidazo[4,5-d]imidazole] | ≤ 150 % of control |
| Cc1cc2nc(N=C3NC4(c5ccccn5)NC(=Nc5nc6cc(C)c(C)cc6[nH]5)NC4(c4ccccn4)N3)[nH]c2cc1C (stereo not drawn) [Example 25, 2,5-bis[(5.6-dimethyl-2-benzimidazolyl)imino]-3a,6a-bis(2-pyridyl)-1,2,2a,4,5,6,6a-octahydroimidazo[4,5-d]imidazole bis(trifluoroacetate) salt] | above 150 % of control |
| O=C(O)c1ccc2nc(N=C3NC4(c5ccccn5)NC(=Nc5nc6ccccc6[nH]5)NC4(c4ccccn4)N3)[nH]c2c1 (stereo not drawn) [Example 31, 5-[(2-benzimidazolylimino]1-2-[(5-carboxy-2-benzimidazolyl)imino]-3a,6a-bis(2-pyridyl)-1,2,3,3a,4,5,6,6a-octahydroimidazo[4,5-d]imidazolebis(trifluoroacetate) salt] | ≤ 150 % of control |
| Ic1ccc2nc(N=C3NC4(c5ccccn5)NC(=Nc5nc6ccc(I)cc6[nH]5)NC4(c4ccccn4)N3)[nH]c2c1.O=C(O)C(F)(F)F.O=C(O)C(F)(F)F (stereo not drawn) [Example 32a, 2,5-bis[(5-iodo-2-benzimidazolyl)imino]-3a,6a-bis(2-pyridyl)-1,2,3,3a,4,5,6,6a-octahydroimidazo[4,5-d]imidazole bis(trifluoroacetate) salt] | ≤ 150 % of control |
| Brc1ccc(C23NC(=Nc4nc5ccccc5[nH]4)NC2(c2ccc(Br)cc2)NC(=Nc2nc4ccccc4[nH]2)N3)cc1 (stereo not drawn) [Example 33, 2,5-bis[2-benzimidazolylimino]-3a,6a-bis(4-bromophenyl)-1,2,3,3a,4,5,6,6a-octahydroimidazo[4,5-d]imidazole] | ≤ 150 % of control |
| FC(F)(F)c1ccc(C23NC(=Nc4nc5ccccc5[nH]4)NC2(c2ccc(C(F)(F)F)cc2)NC(=Nc2nc4ccccc4[nH]2)N3)cc1 (stereo not drawn) [Example 34, 2,5-bis[2-benzimidazolylimino]-3a,6a-bis(4-trifluoromethylphenyl)-1,2,3,3a,4,5,6,6a-octahydroimidazo[4,5-d]imidazole] | above 150 % of control |
| Cc1ccc2nc(N=C3NC4(c5ccccc5)NC(=Nc5nc6ccccc6[nH]5)NC4(c4ccccn4)N3)[nH]c2c1.O=C(O)C(F)(F)F.O=C(O)C(F)(F)F (stereo not drawn) [Example 37, 5-(2-benzimidazolylimino)-2-[(5-methyl-2-benzimidazolyl)imino]-3a-(2-pyridyl)-6a-phenyl-1,2,3,3a,4,5,6,6a-octahydroimidazo[4,5-d]imidazole bis(trifluoroacetate) salt] | above 150 % of control |
| Cc1ccc(C23NC(=Nc4nc5ccccc5n4C)NC2(c2ccc(C)cc2)NC(=Nc2nc4ccccc4n2C)N3)cc1 (stereo not drawn) [Example 39, 2,5-bis[(1-methyl-2-benzimidazolyl)imino]-3a,6a-bis(4-methylphenyl)-1,2,3,3a,4,5,6,6a-octahydromidazo[4,5-d]imidazole] | above 150 % of control |
| Cn1c(N=C2NC3(c4ccc(Br)cc4)NC(=Nc4nc5ccccc5n4C)NC3(c3ccc(Br)cc3)N2)nc2ccccc21 (stereo not drawn) [Example 40, 2,5-bis[(1-methyl-2-benzimidazolyl)imino]-3a,6a-bis(4-bromophenyl)-1,2,3,3a,4,5,6,6a-octahydromidazo[4,5-d]imidazole] | ≤ 150 % of control |

More lines, now with the values ahead:

| activation, % of control, in the luciferase assay | SMILES |
| --- | --- |
| above 150 % of control | c1ccc(C23NC(=Nc4nc5ccccc5[nH]4)NC2(c2ccccn2)NC(=Nc2nc4ccccc4[nH]2)N3)nc1 (stereo not drawn) [Example 1] |
| above 150 % of control | Cc1csc(N=C2NC3(c4ccccn4)NC(=Nc4nc(C)cs4)NC3(c3ccccn3)N2)n1 (stereo not drawn) [Example 13, 2,5-bis[(4-methyl-2-thiazolyl)imino]-3a,6a-bis(2-pyridyl)-1,2,3,3a,4,5,6a-octahydroimidazo[4,5-d]imidazole] |
| ≤ 150 % of control | Fc1ccc2nc(N=C3NC4(c5ccccn5)NC(=Nc5nc6ccccc6[nH]5)NC4(c4ccccn4)N3)[nH]c2c1.O=C(O)C(F)(F)F.O=C(O)C(F)(F)F (stereo not drawn) [Example 19, 5-(2-benzimidazolylimino)-2-[(5-fluoro-2-benzimidazolyl)imino]-3a,6a-bis(2-pyridyl)-1,2,3,3a,4,5,6,6a-octahydroimidazo[4,5-d]imidazole bis(trifluoroacetate) salt] |
| above 150 % of control | Fc1ccc2nc(N=C3NC4(c5ccccn5)NC(=Nc5nc6ccc(F)cc6[nH]5)NC4(c4ccccn4)N3)[nH]c2c1 (stereo not drawn) [Example 20, 2,5-bis[(5-fluoro-2-benzimidazolyl)imino]-3a,6a-bis(2-pyridyl-1,2,3,3a4,5,6,6a-octahydroimidazo[4,5-d]imidazolebis(trifluoroacetate) salt] |
| above 150 % of control | Cc1cc2nc(N=C3NC4(c5ccccn5)NC(=Nc5nc6ccccc6[nH]5)NC4(c4ccccn4)N3)[nH]c2cc1C (stereo not drawn) [Example 26, 5-[2-benzimidazolylimino]-2-[(5,6-dimethyl-2-benzimidazolyl)imino]-3a,6a-bis(2-pyridyl)-1,2,2a,4,5,6,6a-octahydroimidazo[4,5-d]imidazole bis(trifluoroacetate) salt] |
| above 150 % of control | c1ccc(C23NC(=Nc4nc5ccccc5[nH]4)NC2(c2ccccn2)NC(=Nc2nc4ccccc4s2)N3)nc1 (stereo not drawn) [Example 30, 5-[2-benzimidazolylimino]-2-[2-benzothiazolylimino]-3a,6a-bis(2-pyridyl)-1,2,3a,4,5,6,6a-octahydroimidazo[4,5-d]imidazole bis(trifluoroacetate)] |
| above 150 % of control | Ic1ccc2nc(N=C3NC4(c5ccccn5)NC(=Nc5nc6ccccc6[nH]5)NC4(c4ccccn4)N3)[nH]c2c1 (stereo not drawn) [Example 32b, 5-[2-benzimidazolylimino]-2-[(5-iodo-2-benzimidazolyl)imino]-3a,6a-bis(2-pyridyl)-1,2,2a,4,5,6,6a-octahydroimidazo[4,5-d]imidazole bis(trifluoroacetate) salt] |
| above 150 % of control | Clc1cccc(C23NC(=Nc4nc5ccccc5[nH]4)NC2(c2ccccc2)NC(=Nc2nc4ccccc4[nH]2)N3)c1 (stereo not drawn) [Example 35, 2,5-bis[2-benzimidazolylimino]-3a-(3-chlorophenyl)-6a-phenyl-1,2,3,3a,4,5,6,6a-octahydroimidazo[4,5-d]imidazole] |
| ≤ 150 % of control | Clc1ccccc1C12NC(=Nc3nc4ccccc4[nH]3)NC1(c1ccccc1)NC(=Nc1nc3ccccc3[nH]1)N2 (stereo not drawn) [Example 36, 2,5-bis[2-benzimidazolylimino]-3a-(2-chlorophenyl)-6a-phenyl-1,2,3,3a,4,5,6,6a-octahydroimidazo[4,5-d]imidazole] |
| ≤ 150 % of control | Cn1c(N=C2NC3(c4ccccc4)NC(=Nc4nc5ccccc5n4C)NC3(c3ccccc3)N2)nc2ccccc21 (stereo not drawn) [Example 38, 2,5-bis[(1-methyl-2-benzimidazolyl)imino]-3a,6a-diphenyl-1,2,3,3a,4,5,6,6a-octahydromidazo[4,5-d]imidazole] |
